Experimental data reported in patent publication US5384417A, “Heptitols” (priority 1994, dated 1995).
Where two headings read alike, the source gives them in different places.

What was measured:
Assay type in all cases: biochemical
β-Glucuronidase = molecular target: T1, β-Glucuronidase (Homo sapiens, UniProt P08236); experiment: inhibition of human liver β-glucuronidase; conditions: read-out: % Inhibition of Glycosidase Activity, β-Glucuronidase
T1 construct: Human liver glycosidases were assayed; from tissue; host or cells: human liver
T1 sequence (P08236 23-633 limits assumed): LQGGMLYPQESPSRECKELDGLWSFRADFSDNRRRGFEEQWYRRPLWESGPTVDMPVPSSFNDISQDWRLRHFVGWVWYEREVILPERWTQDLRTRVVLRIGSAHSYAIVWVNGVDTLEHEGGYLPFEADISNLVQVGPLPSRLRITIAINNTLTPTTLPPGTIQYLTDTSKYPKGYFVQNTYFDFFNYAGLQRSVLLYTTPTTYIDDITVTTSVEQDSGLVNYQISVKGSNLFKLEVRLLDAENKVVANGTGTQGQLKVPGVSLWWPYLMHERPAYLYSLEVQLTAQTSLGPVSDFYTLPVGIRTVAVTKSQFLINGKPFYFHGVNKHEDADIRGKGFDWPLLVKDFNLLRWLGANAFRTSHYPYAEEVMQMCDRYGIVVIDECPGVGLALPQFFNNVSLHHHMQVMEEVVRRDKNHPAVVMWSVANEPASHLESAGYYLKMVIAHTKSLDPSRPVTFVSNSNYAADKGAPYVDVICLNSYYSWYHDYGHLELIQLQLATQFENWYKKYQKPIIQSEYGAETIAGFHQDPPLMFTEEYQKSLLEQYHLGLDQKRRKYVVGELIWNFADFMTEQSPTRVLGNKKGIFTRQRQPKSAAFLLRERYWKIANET
Description: (§1) Human liver glycosidases were assayed in the absence and presence [1 mM] of each of the potential inhibitors, using the appropriate buffered 4-methylumbelliferyl glycosides as substrates, as previously described.^17 See Table I, below.

α-Galactosidase = molecular target: T2, α-Galactosidase (Homo sapiens, UniProt P06280); experiment: inhibition of human liver α-galactosidase; conditions: read-out: % Inhibition of Glycosidase Activity, α-Galactosidase
T2 construct: Human liver glycosidases were assayed; from tissue; host or cells: human liver
T2 sequence (P06280 32-429): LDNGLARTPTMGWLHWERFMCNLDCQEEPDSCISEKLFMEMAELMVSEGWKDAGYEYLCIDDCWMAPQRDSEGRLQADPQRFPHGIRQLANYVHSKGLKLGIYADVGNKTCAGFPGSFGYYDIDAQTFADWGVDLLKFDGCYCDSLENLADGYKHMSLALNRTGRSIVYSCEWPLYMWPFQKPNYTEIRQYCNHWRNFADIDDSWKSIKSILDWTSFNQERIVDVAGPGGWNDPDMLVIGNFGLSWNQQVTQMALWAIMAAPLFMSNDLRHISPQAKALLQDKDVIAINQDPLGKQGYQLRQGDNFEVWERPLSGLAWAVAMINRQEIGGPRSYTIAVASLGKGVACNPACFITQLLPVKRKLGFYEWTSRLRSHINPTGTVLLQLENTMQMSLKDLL
Description: as §1

β-Glucosidase = experiment: inhibition of human liver β-glucosidase; conditions: 1 mM inhibitor
Description: as §1

α-Fucosidase = molecular target: T3, α-Fucosidase (Homo sapiens, UniProt P04066); experiment: inhibition of human liver α-fucosidase; conditions: for inhibition of α-fucosidase (in words): 1 mM; for inhibition at 1000 µM: 1 mM inhibitor, read-out: % Inhibition of Glycosidase Activity, α-Fucosidase
T3 construct: Human liver glycosidases were assayed; from tissue; host or cells: human liver
T3 sequence (P04066 32-466): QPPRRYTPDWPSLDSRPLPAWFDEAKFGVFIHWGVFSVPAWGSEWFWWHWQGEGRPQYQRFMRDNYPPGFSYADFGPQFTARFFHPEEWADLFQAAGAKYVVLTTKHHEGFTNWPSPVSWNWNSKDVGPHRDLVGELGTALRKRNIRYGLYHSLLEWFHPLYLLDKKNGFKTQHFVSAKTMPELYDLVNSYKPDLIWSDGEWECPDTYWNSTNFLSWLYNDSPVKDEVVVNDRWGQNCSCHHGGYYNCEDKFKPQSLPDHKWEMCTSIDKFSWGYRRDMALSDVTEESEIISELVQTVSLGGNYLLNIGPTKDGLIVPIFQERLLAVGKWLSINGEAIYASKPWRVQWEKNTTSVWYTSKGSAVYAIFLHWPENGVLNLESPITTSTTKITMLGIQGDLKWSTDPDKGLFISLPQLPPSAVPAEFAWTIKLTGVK
Description: as §1

SMILES | inhibition at 1000 µM (β-Glucuronidase; 1 mM inhibitor) | inhibition at 1000 µM (α-Galactosidase; 1 mM inhibitor) | % Inhibition of Glycosidase Activity, β-Glucosidase (β-Glucosidase) | inhibition at 1000 µM (β-Glucuronidase) | inhibition at 1000 µM (α-Galactosidase) | inhibition of α-fucosidase (in words) (α-Fucosidase) | inhibition at 1000 µM (α-Fucosidase) | inhibition of α-fucosidase (in words) (α-Fucosidase; listed as α-(aminomethyl)-1-deoxy-mannofuranose (5))
OC[C@@H](O)[C@H]1NC[C@@H](O)[C@H]1O [DIM (3)] | 9% | 0% | 16% |  |  |  |  | 
OC[C@H]1NC[C@@H](O)[C@@H](O)[C@@H]1O [DMJ (1), deoxymannojirimycin] |  |  | 0% | 53% | 0% | potent inhibition of α-fucosidase |  | 
NC[C@H]1O[C@H]([C@H](O)CO)[C@H](O)[C@@H]1O [Manhepamine (5), 1-amino-2,5-anhydro-1-deoxy-D-glycero-D-talo-heptitol] | 7% | 0% | 14% |  |  | moderate inhibition of α-fucosidase | 77% | moderate inhibitor of α-fucosidase
OC[C@@H](O)[C@H]1N[C@H](CO)[C@@H](O)[C@H]1O [αHomoDIM (4), 2,5-dideoxy-2,5-imino-D-glycero-D-talo-heptitol] | 0% | 11% | 23% |  |  | much less potent | 27% | 
OC[C@H]1N[C@H](CO)[C@@H](O)C(O)[C@@H]1O (some centres unmarked) [αHomoDMJ (2)] | 0% | 0% | 0% |  |  | decrease markedly the potent inhibition of α-fucosidase | 29% | 
